Results taken from patent US20070259784A1, “Fungicidal Mixtures” (BASF Aktiengesellschaft, priority 2004, published 2007).

Tested on: Puccinia recondita
Assay: Protective activity against Puccinia recondita on wheat (brown rust of wheat)
Type: in vivo
Conditions: individual active compound, wheat leaves, visual rating
Procedure: The active compounds, separately or jointly, were prepared as a stock solution comprising 0.25% by weight of active compound in acetone or DMSO. 1% by weight of the emulsifier Uniperol® EL (welting agent having emulsifying and dispersant action based on ethoxylated alkylphenols) was added to this solution, and the mixture was diluted with water to the desired concentration.
Leaves of potted wheat seedlings of the cultivar “Kanzler” were sprayed to runoff point with an aqueous suspension having the concentration of active compound stated below. The next day, the treated plants were inoculated with a spore suspension of brown rust of wheat (Puccinia recondita). The plants were then placed in a chamber with high atmospheric humidity (90 to 95%) at 20 to 22° C. for 24 hours. During this time, the spores germinated and the germinal tubes penetrated into the leaf tissue. The next day, the test plants were returned to the greenhouse and cultivated at temperatures between 20 and 22° C. and at 65 to 70% relative atmospheric humidity for a further 7 days. The extent of the development of the rust fungus on the leaves was then determined visually.
The visually determined percentages of infected leaf areas were converted into efficacies in % of the untreated control:
The efficacy (E) is calculated as follows using Abbot's formula: E=(1−α/β)·100 α corresponds to the fungicidal infection of the treated plants in % and β corresponds to the fungicidal infection of the untreated (control) plants in %
An efficacy of 0 means that the infection level of the treated plants corresponds to that of the untreated control plants; an efficacy of 100 means that the treated plants were not infected.
The expected efficacies of mixtures of active compounds were determined using Colby's formula (Colby, S. R. “Calculating synergistic and antagonistic responses of herbicide combinations”, Weeds, 15, 20-22, 1967) and compared with the observed efficacies.
Colby's Formula: E=x+y−x·y/100 • E expected efficacy, expressed in % of the untreated control, when using the mixture of the active compounds A and B at the concentrations a and b • x efficacy, expressed in % of the untreated control, when using the active compound A at the concentration a
y efficacy, expressed in % of the untreated control, when using the active compound B at the concentration b

SMILES | Efficacy in % of the untreated control (2.5 ppm in the spray liquor) | Efficacy in % of the untreated control (5 ppm in the spray liquor) | Efficacy in % of the untreated control (1 ppm in the spray liquor) | Efficacy in % of the untreated control (12.5 ppm in the spray liquor)
CC1CCN(c2c(-c3c(F)cc(F)cc3F)c(Cl)nc3ncnn23)CC1 [compound I, 5-chloro-7-(4-methylpiperidin-1-yl)-6-(2,4,6-trifluorophenyl)-[1,2,4]triazolo[1,5-a]pyrimidine] | 42% | 53% | – | –
CCN(CC)C1COC2(CCC(C(C)(C)C)CC2)O1 (centres unmarked) [compound II, (8-tert-butyl-1,4-dioxaspiro[4.5]dec-2-yl)diethylamine] | 0% | – | 0% | 0%
